The values below come from US5125099A, “Obtaining heteropolysaccharide-producing microorganism and the microorganism agrobacterium radiobacter NCIB 40018” (Shell Internationale Research Maatschappij B.V., priority 1988, dated 1992).

One experiment concerns GBP1. Kind of experiment: Effect of unlabelled glucose analogues on binding of [14C]glucose to GBP1, equilibrium dialysis. On the set-up: species or system Agrobacterium radiobacter. On the procedure:
(§1) The capacity of glucose analogues to reduce the extent of binding of D-[U-^14 C]glucose to pure proteins was determined by modifying the assay procedure as follows. One chamber of each cell contained 0.5 nmol pure protein in 0.3 ml bis-Tris, pH 6.8, and the other chamber was loaded with 0.3 ml of buffer containing 3 nmol D-[U-^14 C]glucose [85 mCi mmol^-1 (3.2 GBq mmol )] plus 120 nmol of an unlabelled glucose analogue. The quantity of [^14 C]glucose that bound to the proteins in the presence and absence of unlabelled glucose analogues was determined after 30 h incubation.
On the technique in general: In equilibrium dialysis free small molecules cross a membrane that holds back macromolecules.

Another experiment concerns GBP2. As to the kind of experiment: Effect of unlabelled glucose analogues on binding of [14C]glucose to GBP2, equilibrium dialysis. On the set-up: species or system Agrobacterium radiobacter. On the procedure: as §1
For experiment [1], the system named is A. radiobacter strain AR18. Kind of experiment: Effect of glucose analogues on [14C]glucose uptake by strain AR18 grown under glucose limitation. Format: cell-based, Agrobacterium radiobacter. The following applies: Agrobacterium radiobacter, AR18, pH 7; unlabelled sugars 10 mM, [14C]glucose 250M, glucose-limited culture D = 0.045 h^-1, control rate 72 nmol min^-1 (mg dry wt)^-1. On the procedure:
(§2) Measurement of glucose uptake. […] Assays were carried out in an open-topped Rank oxygen electrode vessel containing 1 ml 20 mM HEPES/KOH buffer, pH 7.0, and 1 mg dry wt cells. The contents of the vessel were maintained at 30° C. and mixed continuously using a magnetic stirrer. […] Samples (50 ul) of the reaction mixture were withdrawn at 15 s intervals and the cells were collected on nitrocellulose filters of 0.45 uM pore size (2.5 cm dia.; Sartorius) by means of a manifold connected to a vacuum line. The filters were washed immediately using 3 ml 20 mM HEPES, pH 7.0, dried under an infra-red lamp and then immersed in 3 ml of Fisofluor 3 scintillant (Fisons Ltd.).

The subject of experiment [2] is A. radiobacter strain AR9. As to the kind of experiment: Effect of glucose analogues on [14C]glucose uptake by strain AR9 grown under glucose limitation. Format: cell-based, Agrobacterium radiobacter. The following applies: Agrobacterium radiobacter, AR9, pH 7; unlabelled sugars 10 mM, [14C]glucose 250M, glucose-limited culture D = 0.045 h^-1, control rate 63 nmol min^-1 (mg dry wt)^-1. On the procedure: as §2

The test system of experiment [3] is A. radiobacter strain AR18. Kind of experiment: [14C]glucose uptake by strain AR18 grown under ammonia limitation. Format: cell-based. As to conditions: Agrobacterium radiobacter, AR18, pH 7; ammonia-limited growth, forty-fold molar excess over [14C]glucose; read-out: Reduction of rate of glucose uptake by strain AR18.
Method: (§3) Measurement of glucose uptake. Rates of glucose uptake were determined by measuring the incorporation of D-[U-^14 C]glucose into whole cells over a period of 60 s. Assays were carried out in an open-topped Rank oxygen electrode vessel containing 1 ml 20 mM HEPES/KOH buffer, pH 7.0, and 1 mg dry wt cells. The contents of the vessel were maintained at 30° C. and mixed continuously using a magnetic stirrer. Assays were started by adding D-[U-^14 C]glucose [2 mCi mmol^-1 (74 MBq mmol^-1 ; 0.5 uCi (18.5 KBl)] to give a final concentration of 250 uM. Samples (50 ul) of the reaction mixture were withdrawn at 15 s intervals and the cells were collected on nitrocellulose filters of 0.45 uM pore size (2.5 cm dia.; Sartorius) by means of a manifold connected to a vacuum line. The filters were washed immediately using 3 ml 20 mM HEPES, pH 7.0, dried under an infra-red lamp and then immersed in 3 ml of Fisofluor 3 scintillant (Fisons Ltd.). The extent of incorporation of [^14 C]glucose into the cells was determined by counting the radioactivity on the filters using a Hewlett Packard Tri-Carb liquid scintillation counter (80-85% efficiency). Glucose uptake rates were measured in triplicate for each batch of cells and the standard errors never exceeded 10% of the mean values. […]
The subject of experiment [4] is A. radiobacter strain AR9. Kind of experiment: [14C]glucose uptake by strain AR9 grown under ammonia limitation. As to conditions: Agrobacterium radiobacter, AR9, pH 7; ammonia-limited growth, forty-fold molar excess over [14C]glucose; read-out: Reduction of rate of glucose uptake by strain AR9. Format: cell-based.
Method: as §3
Where [5] appears, read: 0.5 nmol pure protein, 3 nmol [14C]glucose plus 120 nmol unlabelled analogue, 30 h, 4° C.
The mark [6] stands for this setting: competition with [14C]glucose in vitro, listed as D-Galactose.

As for `O=C[C@H](O)[C@@H](O)[C@@H](O)[C@H](O)CO` [D-galactose], the “[14C]glucose bound GBP1” value with GBP1 (setting [5]) is recorded as 2 % control value. Besides, in the experiment with GBP1 (setting [6]), the “Effect on binding of glucose to GBP1 (in words)” value was “only effective with GBP1”. Further, the “[14C]glucose bound GBP2” value with GBP2 (setting [5]) was found to be 99 % control value. In addition, the “Effect on binding of glucose to GBP2 (in words)” value in the experiment on GBP2 (setting [6]) was “only effective with GBP1”. Moreover, the figures for the activity at 10000 µM in experiment [1] and in experiment [2] were 8% and 75%, respectively. The inhibition at 10000 µM was ~95% in experiment [3] and ~50% in experiment [4].
